Here are results for four molecules from patent publication US20070270521A1, “Transition metal compound, polymerization-initiator system comprising the same, and process for producing polymer” (Sumitomo Chemical Company, Limited, priority 2006, published 2007).

Format in all cases: physicochemical
A short description of data set [1]: Saturated solubility of the transition metal compound in a solvent at 23° C. Conditions: amount dissolved in 10 mL of saturated solution (Note-1).
Data set [2] can be described thus: Color change of the reaction mixture before and after polymerization (stability during polymerization). To be noted: methyl acrylate/ethylene copolymerization in toluene, 150° C., 4 MPa. How it is done:
A 400 mL stainless-steel autoclave was dried sufficiently, and a gas in the autoclave was displaced with a nitrogen gas. There was put in the autoclave, at ordinary temperature and atmospheric pressure, 1.61 g of [dodecyl(tetramethyl)cyclopentadienyl]iron carbonyl dimer (transition metal compound) obtained in Reference Example 2, and then, 18 mL of methyl acrylate manufactured by Tokyo Chemical Industry Co., Ltd. and 18 mL of purified toluene as a polymerization solvent were put therein using a syringe. After heating the mixture up to 150° C., ethylene (olefin) was pressed into the autoclave up to its pressure of 4.0 MPa. Finally, 2.0 mL of a toluene solution of 2-iodobutane (manufactured by Tokyo Chemical Industry Co., Ltd.) having a concentration of 1.0 mol/L was put therein, thereby copolymerizing methyl acrylate and ethylene at 150° C. for 10 minutes. The copolymerization reaction mixture was subjected to distillation under reduced pressure to distil away the remaining monomer (methyl acrylate) and the solvent (toluene). The resultant solid was dried for three hours in a vacuum dryer (80° C.), thereby obtaining 8.7 g of a random copolymer of methyl acrylate and ethylene. Both the original mixture before copolymerization and the copolymerization reaction mixture were red. […]

Data set [3] in a line: Polymer dipped in heptane (transfer of the transition metal compound to heptane). To be noted: poly(butyl acrylate) made at 60° C. in toluene, containing the transition metal compound. The source says:
Its molecular weight distribution (Mw/Mn) of 3.2 was a single peak distribution. When dipping said polymer in heptane, the transition metal compound contained in said polymer was transferred to heptane, and said polymer was decolorized from red to very pale yellow.
Its molecular weight distribution (Mw/Mn) of 3.9 was a single peak distribution. When dipping said polymer in heptane, the transition metal compound contained in said polymer was hardly transferred to heptane, and said polymer remained red and was not decolorized.

`Cc1c(C)c(C)[c-](C)c1C.Cc1c(C)c(C)[c-](C)c1C.[C-]#[O+].[C-]#[O+].[C-]#[O+].[C-]#[O+].[Fe+][Fe+]` [[(pentamethyl)cyclopentadienyl]iron carbonyl dimer]: the Saturated solubility in data set [1] (hexane) amounted to 0.8 mmol; in data set [1] (toluene), 19.3 mmol.
Turning to (cyclopentadienyl)iron carbonyl dimer, the Saturated solubility was determined as 2.4 mmol in data set [1] (hexane) and 167.3 mmol in data set [1] (toluene).
As for “[dodecyl(tetramethyl)cyclopentadienyl]iron carbonyl dimer”, in data set [2], the “Color change of the reaction mixture before and after polymerization” value was “non-changed”. The “Polymer dipped in heptane” value in data set [3] is reported as “decolorized”. Besides, the Saturated solubility in data set [1] (hexane) is 131.4 mmol.
In data set [1] (hexane), “[octyl(tetramethyl)cyclopentadienyl]iron carbonyl dimer” had a Saturated solubility of 96.8 mmol.
